According to ChEMBL document CHEMBL3112551, “Synthesis of 2H-1,3-benzoxazin-4(3H)-one derivatives containing indole moiety: their in vitro evaluation against PDE4B” (Bioorg Med Chem Lett, 2014):
Active and inactive are the calls of the source. No cut-off for these calls is given here.

Target: 3',5'-cyclic-AMP phosphodiesterase 4B (Homo sapiens) (UniProt Q07343)
Experiment: Inhibition of PDE4B (unknown origin) expressed in HEK293 cells assessed as increase in forskolin-stimulated cAMP level preincubated for 30 mins followed by forskolin-stimulation measured after 4 hrs by luciferase reporter gene assay
Assay type: functional, cell-based

Sequence of 3',5'-cyclic-AMP phosphodiesterase 4B (Homo sapiens) (Q07343 whole entry): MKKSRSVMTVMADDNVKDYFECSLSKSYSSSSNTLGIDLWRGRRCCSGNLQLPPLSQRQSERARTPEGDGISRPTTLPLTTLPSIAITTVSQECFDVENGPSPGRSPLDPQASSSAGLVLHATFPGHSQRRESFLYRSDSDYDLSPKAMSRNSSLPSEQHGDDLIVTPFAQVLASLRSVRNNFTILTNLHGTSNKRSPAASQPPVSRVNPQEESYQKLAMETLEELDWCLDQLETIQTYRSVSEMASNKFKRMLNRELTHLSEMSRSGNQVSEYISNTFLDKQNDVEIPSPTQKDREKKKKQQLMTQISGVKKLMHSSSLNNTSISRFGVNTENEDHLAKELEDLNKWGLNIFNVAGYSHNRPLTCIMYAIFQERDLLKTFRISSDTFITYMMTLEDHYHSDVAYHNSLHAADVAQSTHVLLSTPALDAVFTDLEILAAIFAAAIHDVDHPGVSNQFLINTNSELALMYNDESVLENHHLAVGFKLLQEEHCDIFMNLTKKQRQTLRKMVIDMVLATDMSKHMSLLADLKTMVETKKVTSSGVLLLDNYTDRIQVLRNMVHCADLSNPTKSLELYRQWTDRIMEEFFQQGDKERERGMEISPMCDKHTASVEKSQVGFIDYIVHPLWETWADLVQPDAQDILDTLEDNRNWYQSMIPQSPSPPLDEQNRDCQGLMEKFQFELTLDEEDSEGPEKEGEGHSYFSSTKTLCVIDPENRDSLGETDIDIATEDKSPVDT

inhibition	SMILES
Dose-dependent effect	CS(=O)(=O)n1c(COCCN2COc3ccccc3C2=O)cc2cc([N+](=O)[O-])ccc21

Target: 3',5'-cyclic-AMP phosphodiesterase 4B (Homo sapiens) (UniProt Q07343)
Experiment: Inhibition of PDE4B (unknown origin) expressed in HEK293 cells assessed as increase in forskolin-stimulated cAMP level at 30 uM preincubated for 30 mins followed by forskolin-stimulation measured after 4 hrs by luciferase reporter gene assay relative to control
Assay type: functional, cell-based

SMILES	inhibition	fold change (FC)
COc1ccc(C2CNC(=O)C2)cc1OC1CCCC1 (centres undefined)	–	> 7
CS(=O)(=O)n1c(COCCN2COc3ccccc3C2=O)cc2cc([N+](=O)[O-])ccc21	–	> 5
CC(=O)c1ccc2c(c1)cc(COCCN1COc3ccccc3C1=O)n2S(C)(=O)=O	inactive	–
CS(=O)(=O)n1c(COCCN2COc3ccccc3C2=O)cc2cc(C(F)(F)F)ccc21	Active	–

Second part, the compound after the results:

inhibition	fold change (FC)	SMILES
Active	–	CS(=O)(=O)n1c(COCCN2COc3ccccc3C2=O)cc2cc(F)ccc21
Active	–	CS(=O)(=O)n1c(COCCN2COc3ccccc3C2=O)cc2cc(C#N)ccc21
Active	–	CS(=O)(=O)n1c(COCCN2COc3ccccc3C2=O)cc2cc(Cl)ccc21
Active	–	O=C1c2ccccc2OCN1CCOCc1cc2ccccc2o1
